Test results published in patent US10058608B2, “Compositions of vaccines and adjuvants and methods for the treatment of urinary tract infections” (priority 2013, dated 2018).

Assay: Forced degradation studies by TOF-MS
Format: physicochemical
Settings: 0.5 mg/ml in potassium citrate, pH 8.1, 37° C.
Procedure: 0.5 mg/ml of PHAD was prepared in potassium citrate, pH 8.1 and stored at 37° C. pH 8.1 is outside the preferred ranges of the invention and induces degradation. Samples were prepared for analysis by the addition of 200 μL of CHCl3, 200 μL of methanol, and 100 μL of ammonium acetate in 80:20 methanol/water. After mixing the bottom layer was transferred and diluted with 100 μL of methanol. Samples were analyzed by electrospray time-of-flight (TOF) mass spectrometry (MS) in negative mode via direct infusion. […] In addition, those skilled in the art understand that various adduct ions may occur during each analysis from day to day. Therefore, molecular formulas are based upon the ions observed considering error of the system day to day. […] By Days 1, 7, 13, and 20 significant ions appear at 1309 and 1519 and continue to increase from Day 1 to Day 20. The MS ion at 1309 represents a loss of two acyl groups (molecular formula is C28H53O3; 437 Daltons) and the MS ion at 1519 represents a loss of a single acyl group (molecular formula is C14H27O2; 227 Daltons) from the diglucosamine scaffold. By Day 7, the mass intensity of the 1519 ion had increased to 46% of the mass intensity of the 1745 mass ion. On Day 0 the mass intensity of the 1519 ion was 4% of that of the 1745 mass ion.
0.5 mg/ml of 3-deacyl-phosphorylated hexaacyl disaccharide was prepared in potassium citrate, pH 8.1 and stored at 37° C. All preparation and analysis were conducted as listed in experiment 1. […] By Days 1, 13, and 22 a significant ion appeared at 1084 and continued to increase from Day 1 to Day 22. The MS ion at 1084 represents a loss of two acyl groups (molecular formula is C28H53O3; 437 Daltons) from the diglucosamine scaffold. By Day 13 the intensity of the 1084 mass ion had increased to 24% of the intensity of the 1521 mass ion. On Day 0 the intensity of the 1084 mass ion was 3% of the intensity of the 1521 mass ion. […] Phosphorylated hexaacyl disaccharide and 3-deacyl phosphorylated hexaacyl disaccharide primarily degrade by losing acyl groups. The formulations of the invention prevent the loss of these acyl groups.
Because it was both pure and abundant, the pentaacyl MLA component was chosen for examination of its degradation mechanism. […] The degradation experiment was conducted in PBS, pH 7.4 and stored at 37° C. This saline buffer system was selected because the use of saline is outside the preferred embodiments of the invention.

Substance	mass intensity of the 1519 ion relative to the 1745 mass ion (Day 0) [%]	mass intensity of the 1519 ion relative to the 1745 mass ion (Day 7) [%]	intensity of the 1084 mass ion relative to the 1521 mass ion (Day 0) [%]	intensity of the 1084 mass ion relative to the 1521 mass ion (Day 13) [%]
phosphorylated hexaacyl disaccharide [PHAD]	4	46		
3-deacyl-phosphorylated hexaacyl disaccharide			3	24
